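GI50 marks 50% less growth. TGI denotes the concentration required for complete inhibition of growth.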
Experiments:
Test in all cases: NCI-60 cell line screen, 384-well format
[1] = test system: A498 renal
[2] = test system: HCC-2998 colon
[3] = test system: IGROV1 ovarian
[4] = test system: OVCAR-4 ovarian
[5] = test system: RXF 393 renal
[6] = test system: NCI-H226 lung
[7] = test system: RPMI-8226 leukemia
[8] = test system: HS 578T breast
[9] = test system: MDA-MB-231 breast
[10] = test system: KM12 colon
[11] = test system: NCI/ADR-RES ovarian
[12] = test system: T-47D breast
[13] = test system: SW-620 colon
[14] = test system: MOLT-4 leukemia
[15] = test system: COLO 205 colon
[16] = test system: TK-10 renal
[17] = test system: 786-0 renal
[18] = test system: DU-145 prostate
[19] = test system: SK-MEL-28 melanoma
[20] = test system: HT29 colon
[21] = test system: MCF7 breast
[22] = test system: LOX IMVI melanoma
[23] = test system: SNB-75 CNS
[24] = test system: MDA-MB-468 breast
[25] = test system: SN12C renal
[26] = test system: NCI-H522 lung
[27] = test system: OVCAR-8 ovarian
[28] = test system: UO-31 renal
[29] = test system: SF-295 CNS
[30] = test system: EKVX NSCLC
[31] = test system: SR leukemia
[32] = test system: BT-549 breast
[33] = test system: MALME-3M melanoma
[34] = test system: HOP-62 NSCLC
[35] = test system: NCI-H23 lung
[36] = test system: SK-MEL-5 melanoma
[37] = test system: MDA-MB-435 melanoma
[38] = test system: SF-268 CNS
[39] = test system: SK-OV-3 ovarian
[40] = test system: SNB-19 CNS
[41] = test system: OVCAR-5 ovarian
[42] = test system: HOP-92 NSCLC
[43] = test system: M14 melanoma
[44] = test system: CAKI-1 renal
[45] = test system: PC-3 prostate
[46] = test system: HL-60(TB) leukemia
[47] = test system: A549 NSCLC
[48] = test system: NCI-H460 NSCLC
[49] = test system: SF-539 CNS
[50] = test system: UACC-257 melanoma
[51] = test system: CCRF-CEM leukemia

## N[C@@H]1CCCN(c2c(Br)cnc3[nH]cc(NC(=O)C4CC4)c23)C1
[1]
  GI50: 0.012 µM
  TGI: 0.0312 µM
[2]
  GI50: 0.0153 µM
  TGI: 0.0455 µM
[3]
  GI50: 0.0611 µM
  TGI: > 100 µM
[4]
  GI50: 0.0177 µM
  TGI: 0.0448 µM
[5]
  GI50: 0.0207 µM
  TGI: 0.0455 µM
[6]
  GI50: 7.47 µM
  TGI: 56.1 µM
[7]
  GI50: 0.0187 µM
  TGI: 0.0979 µM
[8]
  GI50: 0.0143 µM
  TGI: 0.041 µM
[9]
  GI50: 0.318 µM
  TGI: 18.3 µM
[10]
  GI50: 0.0574 µM
  TGI: > 100 µM
[11]
  GI50: 0.0517 µM
  TGI: 0.197 µM
[12]
  GI50: > 100 µM
  TGI: > 100 µM
[13]
  GI50: 0.379 µM
  TGI: 36.4 µM
[14]
  GI50: 0.0141 µM
  TGI: 0.0278 µM
[15]
  GI50: 0.269 µM
  TGI: 2.69 µM
[16]
  GI50: 0.0242 µM
  TGI: 0.0647 µM
[17]
  GI50: 0.0268 µM
  TGI: 0.0789 µM
[18]
  GI50: 0.172 µM
  TGI: > 100 µM
[19]
  GI50: 0.244 µM
  TGI: > 100 µM
[20]
  GI50: 0.197 µM
  TGI: 0.524 µM
[21]
  GI50: 0.0251 µM
  TGI: > 100 µM
[22]
  GI50: 0.276 µM
  TGI: 1.87 µM
[23]
  GI50: 0.262 µM
  TGI: 4.58 µM
[24]
  GI50: 0.02 µM
  TGI: 0.076 µM
[25]
  GI50: 0.45 µM
  TGI: 4.27 µM
[26]
  GI50: 1.51 µM
  TGI: 9.61 µM
[27]
  GI50: 0.0287 µM
  TGI: 0.112 µM
[28]
  GI50: 0.0527 µM
  TGI: > 100 µM
[29]
  GI50: 0.0235 µM
  TGI: 0.0688 µM
[30]
  GI50: 0.184 µM
  TGI: > 100 µM
[31]
  GI50: 0.0151 µM
  TGI: 0.0294 µM
[32]
  GI50: 0.0186 µM
  TGI: 0.0427 µM
[33]
  GI50: 0.0234 µM
  TGI: 0.219 µM
[34]
  GI50: 0.0365 µM
  TGI: 0.202 µM
[35]
  GI50: 0.021 µM
  TGI: 0.0695 µM
[36]
  GI50: 0.0277 µM
  TGI: 0.128 µM
[37]
  GI50: 0.0305 µM
  TGI: 0.124 µM
[38]
  GI50: 0.241 µM
  TGI: > 100 µM
[39]
  GI50: 0.0342 µM
  TGI: 0.162 µM
[40]
  GI50: 0.22 µM
  TGI: > 100 µM
[41]
  GI50: 0.0794 µM
  TGI: 0.433 µM
[42]
  GI50: 0.0192 µM
  TGI: 0.0577 µM
[43]
  GI50: 0.0191 µM
  TGI: 0.0417 µM
[44]
  GI50: 0.361 µM
  TGI: 14.2 µM
[45]
  GI50: 11.8 µM
  TGI: 65.6 µM
[46]
  GI50: 0.018 µM
  TGI: 0.0354 µM
[47]
  GI50: 0.303 µM
  TGI: > 100 µM
[48]
  GI50: 0.118 µM
  TGI: 1.5 µM
[49]
  GI50: 0.0174 µM
  TGI: 0.0358 µM
[50]
  GI50: 0.368 µM
  TGI: > 100 µM
[51]
  GI50: 0.019 µM
  TGI: 0.0375 µM

— PubChem BioAssay (NCI)
